# Entries after “also recorded” stand apart in the source; their conditions may differ.
# What was measured:
# PICK1 = biological target: T1, PICK1 (Rattus norvegicus, UniProt Q9EP80); assay: Fluorescence polarization competition binding to recombinant PICK1
# T1 construct: Full length rat PICK1 (pET41) was prepared as described earlier; inferred from pET41 vector and Glutathione-Sepharose capture) (N, cleaved yes); made in house; host or cells: E. coli BL21-DE3-pLysS
# Description: Full length rat PICK1 (pET41) was prepared as described earlier (Madsen et al., 2005). In brief, PICK1 was expressed in BL21-DE3-pLysS cells and grown at 37° C., induced at OD600=0.6 with 1 mM Isopropyl β-D-1-thiogalactopyranoside (IPTG) and grown 16 hrs at 20° C. Cultures were harvested and re-suspended in 50 mM trisaminomethane (Tris), 125 mM NaCl, 2 mM Dithiothreitol (DTT, Sigma), 1% Triton X-100 (Sigma), 20 μg/mL DNAse 1 and 1⁄2 a tablet cOmplete protease inhibitor cocktail (Roche) pr. 1 L culture. The re-suspended pellets were frozen at -80° C. for later purification. […] Each column was sealed and 0.075 U/μL, Novagen® was added for cleavage 0/N at 4° C. under gentle rotation. PICK1 was eluted on ice and absorption at 280 nm was measured on TECAN plate reader or on a NanoDrop3000. The protein concentration was determined using lambert beers law (A=ε[…]=32320 (cm*mol/L)^-1. Fluorescence polarization: Fluorescence polarization was carried out in competition mode at a fixed concentration of protein and tracer (5[…], 5 nM or 5[…], 20 nM), against an increasing concentration of indicated unlabelled peptide. The plate was incubated for 2 hours on ice in a black half-area Corning Black non-binding surface 96-well plate. The fluorescence polarization was measured directly on an Omega POLARstar plate reader using excitation filter at 488 nm and long pass emission filter at 535 nm. The data was plotted using GraphPad Prism 8.3, and fitted to the One site competition, to extract Ki,app value.
# [1] = tested on: inflammatory pain (CFA model); assay: Complete Freund's Adjuvant (CFA) model of inflammatory pain, von Frey; format: in vivo, mice; conditions: for relief of evoked pain (paw withdrawal threshold): day 2 after CFA
# Description: Inflammatory pain: Animals were habituated to the experimental room for a minimum of 60 min before initiation of the experiment. Mechanical pain threshold was determined by von Frey measurements of both hind paws. Injury was induced on the right hind paw, whereas the contralateral left hind paw was used as internal control of the animal. Von Frey filaments ranging from 0.04 to 2 g (g=gram-forces) (0.04, 0.07, 0.16, 0.4, 0.6, 1.0, 1.4, 2.0) were used for determination of mechanical pain threshold. In the current experiment filaments in ascending order were applied to the frontocentral plantar surface of the hind paws. Mice were placed in PVC plastic boxes (11.5 cm×14 cm) on a wire mesh, and allowed 30 min habituation prior of […]. Each von Frey hair was applied five times with adequate resting periods between each application and number of withdrawals recorded. The withdrawal threshold was determined as the von Frey filament eliciting at least 3 positive trials out of the 5 applications in two consecutive filaments. A positive trial was defined as sudden paw withdrawal, flinching and/or paw licking induced by the filament. The inflammatory pain was induced by injection of 50 μL undiluted Complete Freund's Adjuvant (CFA) (F5881, Sigma) unilaterally into the intraplantar surface of the right hind paw, whereas control mice were injected with the same amount of 0.9% saline (B. Braun, Germany). All intraplantar injections were performed with and insulin needle (0.3 mL BD Micro-Fine) while the animal was under isoflurane anesthesia (2%) for maximum 60 seconds. Von Frey was applied up to 11 days after unilateral CFA injection depending on the experiment. […] Statistical analysis was performed using GraphPad Prism 6.0. Two-way RM ANOVA followed by Bonferroni's post-hoc test. Significance level set to p<0.05.
# Inflammatory pain (CFA model): Animals were habituated to the experimental room for a minimum of 60 min before initiation of the experiment. Mechanical pain threshold was determined by von Frey measurements of both hind paws. Injury was induced on the right hind paw, whereas the contralateral left hind paw was used as internal control of the animal.
# Von Frey filaments ranging from 0.04 to 2 g (g=gram-forces) (0.04, 0.07, 0.16, 0.4, 0.6, 1.0, 1.4, 2.0) were used for determination of mechanical pain threshold. In the current experiment filaments in ascending order were applied to the frontocentral plantar surface of the hind paws. Mice were placed in PVC plastic boxes (11.5 cm×14 cm) on a wire mesh, and allowed 30 min habituation prior of testing. Each von Frey hair was applied five times with adequate resting periods between each application and number of withdrawals recorded. The withdrawal threshold was determined as the von Frey filament eliciting at least 3 positive trials out of the 5 applications in two consecutive filaments. A positive trial was defined as sudden paw withdrawal, flinching and/or paw licking induced by the filament.
# The inflammatory pain was induced by injection of 50 μL undiluted Complete Freund's Adjuvant (CFA) (F5881, Sigma) unilaterally into the intraplantar surface of the right hind paw, whereas control mice were injected with the same amount of 0.9% saline (B. Braun, Germany). All intraplantar injections were performed with an insulin needle (0.3 mL BD Micro-Fine) while the animal was under isoflurane anesthesia (2%) for maximum 60 seconds. Von Frey was applied up to 6 days after unilateral CFA injection depending on the experiment. The peptides were administered s.c. (10 μL/g)), and at different concentrations (0.4 and 2 μmol/kg). Statistical analysis was performed using GraphPad Prism 6.0. Two-way RM ANOVA followed by Dunnett's post-hoc test. Significance level set to p<0.05.
# T1 sequence (Q9EP80 whole entry): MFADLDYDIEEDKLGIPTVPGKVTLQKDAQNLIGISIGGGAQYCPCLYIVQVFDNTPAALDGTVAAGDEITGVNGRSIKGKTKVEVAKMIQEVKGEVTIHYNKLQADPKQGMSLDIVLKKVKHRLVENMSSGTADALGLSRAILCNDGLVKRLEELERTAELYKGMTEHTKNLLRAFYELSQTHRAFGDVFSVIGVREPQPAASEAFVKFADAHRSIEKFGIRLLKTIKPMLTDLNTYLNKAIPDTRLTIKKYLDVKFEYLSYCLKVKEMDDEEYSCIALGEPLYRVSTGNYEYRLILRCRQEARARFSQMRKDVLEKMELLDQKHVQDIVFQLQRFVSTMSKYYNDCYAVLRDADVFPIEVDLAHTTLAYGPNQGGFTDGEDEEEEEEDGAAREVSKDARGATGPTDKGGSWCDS
structure (smiles),measurement,setting,value
CCCCCCCCCCCCCC(=O)N(CCOCCOCCC(=O)N[C@@H](Cc1c[nH]cn1)C(=O)N[C@@H](Cc1c[nH]c2ccccc12)C(=O)N[C@@H](CC(C)C)C(=O)N[C@@H](CCCCN)C(=O)N[C@H](C(=O)O)C(C)C)CCOCCOCCC(=O)N[C@@H](Cc1c[nH]cn1)C(=O)N[C@@H](Cc1c[nH]c2ccccc12)C(=O)N[C@@H](CC(C)C)C(=O)N[C@@H](CCCCN)C(=O)N[C@H](C(=O)O)C(C)C [myr-NPEG4-(HWLKV)2],affinity increase compared to HWLKV,PICK1; FP competition,> 1000 fold
same,affinity increase compared to NPEG4-(HWLKV)2,PICK1; FP competition,> 50 fold
same,Ki,"PICK1; tracer 5FAM-NPEG4-(HWLKV)2 5 nM or 5FAM-HWLKV 20 nM (vs HWLKV), 2 hours on ice, read-out: Ki,app",3 nM
same,paw withdrawal threshold of uninjured contralateral paw,"[1]; CFA model, Example 7",remained unaltered
same,relief of evoked pain (paw withdrawal threshold),"[1]; intrathecal 20 μM, 7 μL, 1 and 5 h",significant pain relief at 1 hour and 5 hours
same,relief of evoked pain (paw withdrawal threshold),"[1]; intrathecal 20 μM, 7 μL, 24 h",no effect 24 hours after administration
same,"relief of evoked pain (paw withdrawal threshold), lipid variants","[1]; s.c. 2.0 μmol/kg in PBS, day 2-5 after CFA, tested 2 and 5 h",full and highly significant pain relief
same,relief of evoked pain (paw withdrawal threshold),"[1]; s.c. 2 μmol/kg, tested 1, 5, 24 h",significant pain relief when tested 1 hour post injection
same,"relief of evoked pain (paw withdrawal threshold), PDZ motif variants","[1]; s.c. 2 μmol/kg, day 5 after CFA",relieved pain
same,relief of evoked pain (paw withdrawal threshold),"[1]; s.c. 10 μmol/kg, tested 1, 5, 24 h",significant pain relief when tested 1 hour post injection
same,relief of evoked pain (paw withdrawal threshold),"[1]; s.c. 50 μmol/kg, tested 1, 5, 24 h",significant pain relief when tested 1 hour post injection; also recorded: significant pain relief up to 5 hours post injection

# Reference: patent US20230346948A1, “Lipid conjugated peptide inhibitors of PICK1” (University of Copenhagen, priority 2020, published 2023)
